#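 Growth conditions: 96-well plates. Treatment: test compound, 48 hours, 5 concentrations. Analysis: linear interpolation between bracketing concentrations; unreached endpoints set to highest concentration. GI50: concentration for 50% inhibition of growth. TGI is the concentration that stops growth completely.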
# Key:
# Experiment in all cases: growth of human tumour cells (NCI), 48 h
# HT29 colon = tested on: HT29 colon
# RPMI-8226 leukemia = tested on: RPMI-8226 leukemia
# SK-MEL-28 melanoma = tested on: SK-MEL-28 melanoma
# LOX IMVI melanoma = tested on: LOX IMVI melanoma
# M14 melanoma = tested on: M14 melanoma
# 786-0 renal = tested on: 786-0 renal
# NCI-H226 lung = tested on: NCI-H226 lung
# MDA-MB-435 = tested on: MDA-MB-435
# SK-OV-3 ovarian = tested on: SK-OV-3 ovarian
# RXF 393 renal = tested on: RXF 393 renal
SMILES,GI50 (HT29 colon) [µM],TGI (HT29 colon) [µM],GI50 (RPMI-8226 leukemia) [µM],TGI (RPMI-8226 leukemia) [µM],GI50 (SK-MEL-28 melanoma) [µM],TGI (SK-MEL-28 melanoma) [µM],GI50 (LOX IMVI melanoma) [µM],TGI (LOX IMVI melanoma) [µM],GI50 (M14 melanoma) [µM],TGI (M14 melanoma) [µM],GI50 (786-0 renal) [µM],TGI (786-0 renal) [µM],GI50 (NCI-H226 lung) [µM],TGI (NCI-H226 lung) [µM],GI50 (MDA-MB-435) [µM],TGI (MDA-MB-435) [µM],GI50 (SK-OV-3 ovarian) [µM],TGI (SK-OV-3 ovarian) [µM],TGI (RXF 393 renal) [µM],GI50 (RXF 393 renal) [µM]
COc1cc(C2C3=C(COC3=O)Nc3c2ccc2c3CCCC2)cc2c1OCO2 (configuration not stated),0.0357,3.97,0.0479,75.3,0.0547,> 100,0.0652,> 100,0.033,67.4,0.0757,14.4,0.0343,0.185,0.0199,0.0497,0.0311,0.103,,
CC1C[C@]2(C[C@@H](C)C(=O)O2)O[C@@H]2CC3(C)[C@@H]4CCC5C(C)(C)OC(=O)C[C@H]6OO[C@]4(CC[C@]3(C)C12)CC56O (some centres not stated),,> 100,,> 100,,> 100,,> 100,,> 100,,> 100,,> 100,,,,> 100,> 100,
CCCCN[C@H]1C2C3CC4C5CC(C42)C1(C)C53 (some centres not stated),,> 100,,> 100,,> 100,,> 100,,> 100,,> 100,,> 100,,,,> 100,> 100,
COc1ccc(-c2cc(-c3cc(Cl)cc(Br)c3O)[nH]c(=O)n2)cc1,,39.4,,49,,44.7,,33.2,,43.3,,32,,33.4,,,,38.8,31.7,
COc1c(-c2ccc(O)c(O)c2)oc2c(O)c(O)cc(O)c2c1=O,,39.8,,> 100,,> 100,,29.4,,,,> 100,,> 100,,> 100,,> 100,,
COC(=O)N/N=C(/CCC(=O)Nc1ccc(C)c(C)c1)CC(=O)C(C)(C)C,,> 100,,> 100,,> 100,,> 100,,> 100,,> 100,,> 100,,,,> 100,> 100,
CCOC(=O)C1=C(C)N(NC(N)=O)C(C)(O)C12CCOC2=O (configuration not stated),,> 100,,> 100,,> 100,,> 100,,> 100,,> 100,,> 100,,,,> 100,,
Cc1ccn2c(CCc3nnc4cc(C)ccn34)nnc2c1,,> 100,,> 100,,> 100,,,,> 100,,> 100,,> 100,,> 100,,> 100,> 100,
OCCNCCCOc1ccc2ncnc(Nc3ccc(Oc4cccc(C(F)(F)F)c4)c(Cl)c3)c2c1,,,1.51,4.1,1.75,3.21,1.71,3.15,,,1.62,3.03,,,1.72,3.21,,,,
C[C@]1(Cn2ccnn2)C(C(=O)O)N2C(=O)CC2S1(=O)=O (some centres not stated),> 100,> 100,> 100,> 100,> 100,> 100,,,> 100,> 100,> 100,> 100,> 100,> 100,> 100,> 100,> 100,> 100,> 100,> 100
CCOC(=N)CC(=O)Nc1cccc(Cl)c1,,> 100,,,,> 100,,> 100,,> 100,,> 100,,> 100,,,,> 100,> 100,
CC(=O)[CH-]C(=O)c1ccccc1.CC(=O)[CH-]C(=O)c1ccccc1.Cl.[O-]c1ccccn1.[O-]c1ccccn1.[Ti+4],> 100,> 100,> 100,> 100,> 100,> 100,> 100,> 100,> 100,> 100,> 100,> 100,> 100,> 100,,,> 100,> 100,,
COc1cc2c(cc1OC)NC(=O)NC(Cc1ccc3c(c1)OCO3)CC2 (configuration not stated),,,,> 100,,> 100,,> 100,,> 100,,> 100,,,,,,> 100,> 100,
CC1=C(Cl)C=CP(=O)(OC(C)C)C1 (configuration not stated),,> 100,,> 100,,> 100,,,,> 100,,> 100,,,,,,,> 100,
O=C(CC1(O)C(=O)Nc2ccccc21)c1ccc(O)cc1 (configuration not stated),,> 100,,> 100,,> 100,,> 100,,> 100,,> 100,,> 100,,,,> 100,> 100,
Clc1ccc2nc(-c3ccccc3)nc(Cl)c2c1,,> 100,,> 100,,> 100,,,,,,> 100,,> 100,,,,36.8,48.6,
Cc1ccc(C2=C(c3ccccc3)C(c3ccccc3)Oc3ccc(C)cc32)cc1 (configuration not stated),,,6.97,41.3,,,13.8,32,1.56,3.05,2.17,4.74,15.8,37.9,8.5,26.8,,,13.3,3.37
CC1=C(C(=O)Nc2ccc([N+](=O)[O-])cc2)C(c2ccc3c(c2)OCO3)C(C(=O)Nc2ccc([N+](=O)[O-])cc2)=C(C)N1,,> 100,,68.5,,> 100,,,,50.4,,> 100,,55.8,,,,> 100,> 100,
CCOC(=O)[C@H]1Nc2ccc([N+](=O)[O-])cc2C2c3ccccc3CC21 (some centres not stated),,35.4,,> 100,,31.9,,33.2,,34.3,,43.9,,55.1,,,,,18.3,
Oc1ccc(CCNCc2cc3c(cc2Br)OCO3)cc1,,> 100,,> 100,,98.2,,> 100,,> 100,,> 100,,> 100,,,,> 100,> 100,
Cc1ccc(-c2cc(=O)c3cc(C)c(C)c(C(=O)O)c3o2)cc1N,,> 100,,> 100,,> 100,,> 100,,> 100,,> 100,,> 100,,,,> 100,> 100,

SMILES,GI50 (HT29 colon) [µM],TGI (HT29 colon) [µM],GI50 (RPMI-8226 leukemia) [µM],TGI (RPMI-8226 leukemia) [µM],GI50 (SK-MEL-28 melanoma) [µM],TGI (SK-MEL-28 melanoma) [µM],GI50 (LOX IMVI melanoma) [µM],TGI (LOX IMVI melanoma) [µM],GI50 (M14 melanoma) [µM],TGI (M14 melanoma) [µM],GI50 (786-0 renal) [µM],TGI (786-0 renal) [µM],GI50 (NCI-H226 lung) [µM],TGI (NCI-H226 lung) [µM],GI50 (MDA-MB-435) [µM],TGI (MDA-MB-435) [µM],GI50 (SK-OV-3 ovarian) [µM],TGI (SK-OV-3 ovarian) [µM],TGI (RXF 393 renal) [µM],GI50 (RXF 393 renal) [µM]
C=CC1(NS(=O)(=O)c2ccc(C)cc2)CCC(C(C)(C)C)CC1 (configuration not stated),,,,> 100,,> 100,,,,> 100,,> 100,,> 100,,,,> 100,54.8,
CC1(C)C=N[N+]2(C)C3C=CC(CC3)C12 (configuration not stated),,> 100,,> 100,,> 100,,> 100,,> 100,,> 100,,> 100,,,,> 100,> 100,
O=[N+]([O-])c1ccccc1C=NC12CC3CC(CC(C3)C1)C2,,> 100,,> 100,,> 100,,> 100,,> 100,,> 100,,> 100,,,,> 100,> 100,
CCCCNC(=O)c1cc(NCc2cc(O)ccc2O)ccc1O,21.5,46.8,1.76,7.85,16.3,30.3,14.7,29.2,19.2,43.7,10.8,23.2,,,17.7,39.5,67.5,> 100,21.4,8.53
CCCCc1n(Cc2ccc3ccccc3c2)cc[n+]1Cc1ccc2ccccc2c1,,,,,1.32,2.69,,,,,1.52,2.97,,,1.02,2.26,1.38,2.75,2.49,1.19
CN[C@@H](C)[C@H](N)c1ccccc1,,> 100,,> 100,,> 100,,> 100,,> 100,,> 100,,> 100,,,,> 100,> 100,
CSc1nc(NC2OC(COC(C)=O)C(OC(C)=O)C(OC(C)=O)C2OC(C)=O)c(-c2csc(N)n2)c(=O)n1C (configuration not stated),,> 100,,> 100,,> 100,,> 100,,> 100,,39.4,,81.7,,,,> 100,,
CNS(=O)(=O)NN(C)S(=O)(=O)c1ccc2ccccc2c1,,> 100,,> 100,,,,> 100,,> 100,,> 100,,> 100,,,,> 100,> 100,
Cc1ccc(NC(=S)SCCC(=O)O)cc1,,> 100,,> 100,,> 100,,> 100,,> 100,,> 100,,> 100,,,,,> 100,
O=C(O)CCc1c2ccc(=O)c(O)c-2oc2c(O)c(O)ccc12,,> 100,,75.3,,> 100,,47.9,,> 100,,> 100,,,,31.1,,> 100,> 100,
COc1ccc(/C(Cl)=C(\c2ccc(OCCN(C)C)cc2)c2ccc(OC(=O)C(C)(C)C)cc2)cc1,,11.5,,30.9,,23.1,,19.4,,12.1,,22.6,,25.7,,,,24.4,21.7,
Cc1cc(N2CCCC2)nc(NCc2cc(Nc3ccnc4cc(Cl)ccc34)ccc2F)n1,0.286,1.23,0.404,5.04,1.78,3.48,1.12,2.48,1.37,2.85,1.34,2.84,,,1.51,2.99,2.04,3.89,2.87,1.43
C=C1C2CC(OC(C)=O)C3(C)C(c4ccoc4)OC(=O)[C@@H](O)[C@]13OC1C[C@H](OC(C)=O)C(C)(C)[C@H](CC(=O)OC)[C@]12C (some centres not stated),,> 100,,> 100,,> 100,,> 100,,> 100,,> 100,,> 100,,,,> 100,,
O=[N+]([O-])c1cc(Cl)ccc1OCc1ccccc1,,84.1,,> 100,,> 100,,> 100,,> 100,,> 100,,,,,,> 100,> 100,
O=S(=O)([O-])[O-].[Cl-].[NH2-].[NH2-].[NH2-].[NH2-].[Ru+3].c1ccncc1,,> 100,,> 100,,> 100,,> 100,,> 100,,> 100,,> 100,,,,> 100,,
N=C(N)c1ccc(NCCOCCNc2ccc(C(=N)N)cc2)cc1,29.5,> 100,22,> 100,73.3,> 100,> 100,> 100,55.4,> 100,> 100,> 100,13.3,> 100,81.3,> 100,7.86,51.7,,
C/C(=N\NC(=S)N1CCCCCCCCCCCC1)c1ccccn1,,1.04,,,,2.02,,1.23,,2.15,,1.24,,1.02,,0.721,,,0.536,
CCCCN(CCCC)CCC(O)c1cc2c(Cl)cc(Cl)cc2c2cc(C(F)(F)F)ccc12 (configuration not stated),,34.9,,28.4,,33.1,,21.9,,23.6,,25.7,,,,28.7,,26.9,,
O=C1Nc2ccccc2/C1=C\c1nc(C2CCN(S(=O)(=O)c3ccc(F)cc3)CC2)n2ccccc12,> 100,> 100,> 100,> 100,> 100,> 100,2.58,> 100,> 100,> 100,2.37,6.71,2.32,21.1,,,4.96,> 100,,
CC(CNCCCNCCNCCCNCO)[N+](=O)[O-] (configuration not stated),,41.7,,35,,26.6,,28.2,,23.6,,29.3,,,,,,> 100,29.2,

# — PubChem BioAssay (NCI)
